Data as given in patent publication US8148373B2, “Compounds” (AstraZeneca AB, priority 2008, dated 2012).
Counter-ions that a name gives are not always drawn.

Experiments:
[1] = molecular target: T1, human muscarinic acetylcholine M3 receptor (M3-ACh) (Homo sapiens, UniProt P20309); assay: Muscarinic 3 Receptor Binding Assay ([3H]NMS competition, SPA); conditions: for IC50: [3H]NMS 0.1 nM, CHO-K1 cell membranes, 16 hours at room temperature, read-out: M3 pIC50 (converted)
T1 construct: expressed in transfected cells; host or cells: CHO-K1 (Chinese Hamster Ovary) cell membranes
T1 sequence (P20309 whole entry): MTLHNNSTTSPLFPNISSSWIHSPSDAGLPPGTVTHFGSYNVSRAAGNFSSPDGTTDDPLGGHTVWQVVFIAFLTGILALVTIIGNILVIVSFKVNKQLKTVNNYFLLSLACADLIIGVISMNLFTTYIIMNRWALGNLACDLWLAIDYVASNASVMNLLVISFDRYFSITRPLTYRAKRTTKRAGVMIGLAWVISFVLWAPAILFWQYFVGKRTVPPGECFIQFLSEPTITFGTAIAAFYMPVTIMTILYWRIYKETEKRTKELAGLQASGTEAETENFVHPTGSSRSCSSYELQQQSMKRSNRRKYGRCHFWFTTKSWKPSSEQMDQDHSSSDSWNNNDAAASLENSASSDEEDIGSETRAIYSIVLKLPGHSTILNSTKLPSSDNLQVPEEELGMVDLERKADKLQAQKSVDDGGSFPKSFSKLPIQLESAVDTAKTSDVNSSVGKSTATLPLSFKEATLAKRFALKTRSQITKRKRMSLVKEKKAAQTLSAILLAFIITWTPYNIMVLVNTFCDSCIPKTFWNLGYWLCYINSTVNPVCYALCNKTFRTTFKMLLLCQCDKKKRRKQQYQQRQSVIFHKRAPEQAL
Method: Muscarinic 3 Receptor Binding Assay
The affinity (pIC50) of compounds binding to the M3 receptor is determined by competition binding of [^3H]N-methyl scopolamine (NMS) to CHO-K1 (Chinese Hamster Ovary) cell membranes expressing the human muscarinic acetylcholine M3 receptor (M3-ACh) in a scintillation proximity assay (SPA) format.
SPA beads are precoated with membranes and then incubated at 2 mg of beads per well with serial dilutions of compounds of the invention, [^3H]NMS at 0.1 nM, quarter Kd (experimentally determined dissociation constant) and assay buffer (20 mM HEPES pH 7.4 containing 5 mM MgCl2). The assay is conducted in a final volume of 200 μL, in the presence of 1% (v/v) dimethyl sulphoxide (DMSO). Total binding of [^3H]NMS is determined in the absence of competing compound and non-specific binding of [^3H]NMS is determined in the presence of 1 μM atropine. The plates are incubated for 16 hours at room temperature and then read on Wallac Microbeta™ using a normalised ^3H protocol. The pIC50, defined as the negative logarithm of the molar concentration of compound required for 50% reduction in specific [^3H]-NMS binding, is determined.

[2] = molecular target: T2, Adrenergic β2 (H292 cells) (Homo sapiens, UniProt P07550); assay: Assay for Adrenergic β2 Mediated cAMP Production (concentration response, AlphaScreen cAMP detection); format: cell-based; conditions: for EC50: cAMP production, 60 minutes at room temperature, 300 μM rolipram, read-out: β2 pEC50 (converted); for β2 Intrinsic activity: fraction relative to the maximum activity determined for formoterol
T2 construct: endogenous in cells; host or cells: H292 cells
T2 sequence (P07550 whole entry): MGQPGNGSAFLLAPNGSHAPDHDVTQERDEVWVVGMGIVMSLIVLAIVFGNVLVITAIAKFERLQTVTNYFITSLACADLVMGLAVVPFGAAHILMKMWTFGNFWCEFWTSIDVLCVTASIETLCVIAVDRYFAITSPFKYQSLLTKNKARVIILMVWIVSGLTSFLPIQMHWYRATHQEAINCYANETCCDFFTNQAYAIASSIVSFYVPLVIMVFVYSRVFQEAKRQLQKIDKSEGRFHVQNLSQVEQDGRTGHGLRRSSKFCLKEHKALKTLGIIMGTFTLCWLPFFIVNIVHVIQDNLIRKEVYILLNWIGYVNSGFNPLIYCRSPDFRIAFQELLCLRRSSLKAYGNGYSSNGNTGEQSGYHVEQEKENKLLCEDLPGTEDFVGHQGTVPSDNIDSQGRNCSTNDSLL
Method: Assay for Adrenergic β2 Mediated Camp Production
H292 cells are grown in 225 cm2 flasks incubator at 37° C., 5% CO2 in RPMI medium containing 10% (v/v) FBS (foetal bovine serum) and 2 mM L-glutamine.
Adherent H292 cells are removed from tissue culture flasks by treatment with Accutase™ cell detachment solution for 15 minutes. Flasks are incubated for 15 minutes in a humidified incubator at 37° C., 5% CO2. Detached cells are re-suspended in RPMI media (containing 10% (v/v) FBS and 2 mM L-glutamine) at 0.1×10^6 cells per mL. 10000 cells in 100 μL are added to each well of a tissue-culture-treated 96-well plate and the cells incubated overnight in a humidified incubator at 37° C., 5% CO2. The culture media is removed and cells are washed twice with 100 μL assay buffer and replaced with 50 μL assay buffer (HBSS solution containing 10 mM HEPES pH7.4 and 5 mM glucose). Cells are rested at room temperature for 20 minutes after which time 25 μL of rolipram (1.2 mM made up in assay buffer containing 2.4% (v/v) dimethylsulphoxide) is added. Cells are incubated with rolipram for 10 minutes after which time test compounds are added and the cells are incubated for 60 minutes at room temperature. The final rolipram concentration in the assay is 300 μM and final vehicle concentration is 1% (v/v) dimethylsulphoxide. The reaction is stopped by removing supernatants, washing once with 100 μL assay buffer and replacing with 50 μL lysis buffer. The cell monolayer is frozen at −80° C. for 30 minutes (or overnight).
AlphaScreen™ cAMP Detection
The concentration of cAMP (cyclic adenosine monophosphate) in the cell lysate is determined using AlphaScreen™ methodology. The frozen cell plate is thawed for 20 minutes on a plate shaker then 10 μL of the cell lysate is transferred to a 96-well white plate. 40 μL of mixed AlphaScreen™ detection beads pre-incubated with biotinylated cAMP, is added to each well and the plate incubated at room temperature for 3 hours in the dark. The AlphaScreen™ signal is measured using an EnVision spectrophotometer (Perkin-Elmer Inc.) with the recommended manufacturer's settings. cAMP concentrations are determined by reference to a calibration curve determined in the same experiment using standard cAMP concentrations. Concentration response curves for agonists are constructed and data is fitted to a four parameter logistic equation to determine both the pEC50 and Intrinsic Activity. Intrinsic Activity is expressed as a fraction relative to the maximum activity determined for formoterol in each experiment.

IC50 [1] [nM]	EC50 [2] [nM]	β2 Intrinsic activity [2]	inhibition at 1 µM ([1]; read-out: M3 inhibtion at 1 μM (printed in the M3 pIC50 column)) [%]	SMILES
25.1	12.6	1		Cc1ccc(C(=O)N2CCOC3(CCN(Cc4ccc(F)c(CCNC[C@H](O)c5ccc(O)c6[nH]c(=O)ccc56)c4F)CC3)C2)s1 [Example 35, (R)-5-(2-(2,6-Difluoro-3-((4-(5-methylthiophene-2-carbonyl)-1-oxa-4,9-diazaspiro[5.5]undecan-9-yl)methyl)phenethylamino)-1-hydroxyethyl)-8-hydroxyquinolin-2(1H)-one ditrifluoroacetate]
794	10	1		CCc1cc(C(=O)N2CC(C)(C)OC3(CCN(Cc4cccc(CCNC[C@H](O)c5ccc(O)c6[nH]c(=O)ccc56)c4)CC3)C2)cs1 [Example 272, (R)-5-(2-(3-((4-(5-ethylthiophene-3-carbonyl)-2,2-dimethyl-1-oxa-4,9-diazaspiro[5.5]undecan-9-yl)methyl)phenethylamino)-1-hydroxyethyl)-8-hydroxyquinolin-2(1H)-one ditrifluoroacetate]
79.4	200	0.9		CC(C)c1nc(C(=O)N2CCOC3(CCN(Cc4cccc(C(C)(C)CNC[C@H](O)c5ccc(O)c6[nH]c(=O)sc56)c4F)CC3)C2)cs1 [Example 90, (R)-7-(2-(2-(2-Fluoro-3-((4-(2-isopropylthiazole-4-carbonyl)-1-oxa-4,9-diazaspiro[5.5]undecan-9-yl)methyl)phenyl)-2-methylpropylamino)-1-hydroxyethyl)-4-hydroxybenzo[d]thiazol-2(3H)-one ditrifluoroacetate]
7.94	15.8	0.9		Cc1nc(C(=O)N2CCOC3(CCN(Cc4ccc(CCNC[C@H](O)c5ccc(O)c6[nH]c(=O)sc56)cc4)CC3)C2)cs1 [Example 16, (R)-4-Hydroxy-7-(1-hydroxy-2-(4-((4-(2-methylthiazole-4-carbonyl)-1-oxa-4,9-diazaspiro[5.5]undecan-9-yl)methyl)phenethylamino)ethyl)benzo[d]thiazol-2(3H)-one ditrifluoroacetate]
2	12.6	0.9		CC(C)c1cc(C(=O)N2CCOC3(CCN(CCCCCCCNC[C@H](O)c4ccc(O)c5[nH]c(=O)sc45)CC3)C2)cs1 [Example 284, (R)-4-Hydroxy-7-(1-hydroxy-2-(7-(4-(5-isopropylthiophene-3-carbonyl)-1-oxa-4,9-diazaspiro[5.5]undecan-9-yl)heptylamino)ethyl)benzo[d]thiazol-2(3H)-one formate]
0.794	5.01	1.2		CC(CCCCCCCCN1CCC2(CC1)CN(C(=O)c1csc(C(C)C)n1)CCO2)NC[C@H](O)c1ccc(O)c2[nH]c(=O)sc12 (stereo partly drawn) [Example 280, (R)-4-Hydroxy-7-(1-hydroxy-2-(10-(4-(2-isopropylthiazole-4-carbonyl)-1-oxa-4,9-diazaspiro[5.5]undecan-9-yl)decan-2-ylamino)ethyl)benzo[d]thiazol-2(3H)-one formate]
5.01	20	0.8		CCC(CC)c1nc(C(=O)N2CCOC3(CCN(Cc4cccc(CCNC[C@H](O)c5ccc(O)c6[nH]c(=O)sc56)c4F)CC3)C2)cs1 [Example 71, (R)-7-(2-(2-Fluoro-3-((4-(2-(pentan-3-yl)thiazole-4-carbonyl)-1-oxa-4,9-diazaspiro[5.5]undecan-9-yl)methyl)phenethylamino)-1-hydroxyethyl)-4-hydroxybenzo[d]thiazol-2(3H)-one ditrifluoroacetate]
2.51	79.4	1		CC(C)c1nc(C(=O)N2CCOC3(CCN(CCOc4ccc(CCNC[C@H](O)c5ccc(O)c6[nH]c(=O)ccc56)c(F)c4F)CC3)C2)cs1 [Example 77, (R)-5-(2-(2,3-Difluoro-4-(2-(4-(2-isopropylthiazole-4-carbonyl)-1-oxa-4,9-diazaspiro[5.5]undecan-9-yl)ethoxy)phenethylamino)-1-hydroxyethyl)-8-hydroxyquinolin-2(1H)-one ditrifluoroacetate]
25.1	5.01	1		Cc1nc(C(=O)N2CCOC3(CCN(CCOc4cccc(CCNC[C@H](O)c5ccc(O)c6[nH]c(=O)sc56)c4)CC3)C2)cs1 [Example 24, (R)-4-Hydroxy-7-(1-hydroxy-2-(3-(2-(4-(2-methylthiazole-4-carbonyl)-1-oxa-4,9-diazaspiro[5.5]undecan-9-yl)ethoxy)phenethylamino)ethyl)benzo[d]thiazol-2(3H)-one ditrifluoroacetate]
	6.31	1	30	Cc1nc(C(=O)N2CC(C)(C)OC3(CCN(Cc4cccc(CCNC[C@H](O)c5ccc(O)c6[nH]c(=O)sc56)c4)CC3)C2)cs1 [Example 271, (R)-7-(2-(3-((2,2-Dimethyl-4-(2-methylthiazole-4-carbonyl)-1-oxa-4,9-diazaspiro[5.5]undecan-9-yl)methyl)phenethylamino)-1-hydroxyethyl)-4-hydroxybenzo[d]thiazol-2(3H)-one ditrifluoroacetate]
6.31	79.4	1		CC(C)c1nc(C(=O)N2CCOC3(CCN(Cc4ccc(F)c(CCNC[C@H](O)c5ccc(O)c6[nH]c(=O)ccc56)c4F)CC3)C2)cs1 [Example 46, (R)-5-(2-(2,6-Difluoro-3-((4-(2-isopropylthiazole-4-carbonyl)-1-oxa-4,9-diazaspiro[5.5]undecan-9-yl)methyl)phenethylamino)-1-hydroxyethyl)-8-hydroxyquinolin-2(1H)-one ditrifluoroacetate]
0.158	2.51	0.8		CCc1cc(C(=O)N2CCOC3(CCN(Cc4cccc(CCNC[C@H](O)c5ccc(O)c6[nH]c(=O)sc56)c4)CC3)C2)cs1 [Example 86, (R)-7-(2-(3-((4-(5-Ethylthiophene-3-carbonyl)-1-oxa-4,9-diazaspiro[5.5]undecan-9-yl)methyl)phenethylamino)-1-hydroxyethyl)-4-hydroxybenzo[d]thiazol-2(3H)-one ditrifluoroacetate]
1.58	50.1	1		CC(C)c1cc(C(=O)N2CCOC3(CCN(Cc4cccc(CC(C)(C)NC[C@H](O)c5ccc(O)c6[nH]c(=O)ccc56)c4)CC3)C2)cs1 [Example 275, (R)-8-Hydroxy-5-(1-hydroxy-2-(1-(3-((4-(5-isopropylthiophene-3-carbonyl)-1-oxa-4,9-diazaspiro[5.5]undecan-9-yl)methyl)phenyl)-2-methylpropan-2-ylamino)ethyl)quinolin-2(1H)-one ditrifluoroacetate]

SMILES	IC50 [1] [nM]	EC50 [2] [nM]	β2 Intrinsic activity [2]	inhibition at 1 µM ([1]; read-out: M3 inhibtion at 1 μM (printed in the M3 pIC50 column)) [%]
Cc1nc(C(=O)N2CCOC3(CCN(Cc4cccc(CNC[C@H](O)c5ccc(O)c6[nH]c(=O)ccc56)c4)CC3)C2)cs1 [Example 96, (R)-8-Hydroxy-5-(1-hydroxy-2-(3-((4-(2-methylthiazole-4-carbonyl)-1-oxa-4,9-diazaspiro[5.5]undecan-9-yl)methyl)benzylamino)ethyl)quinolin-2(1H)-one ditrifluoroacetate]	0.251	> 3200	NV* (inactive up to a max concentration of 3.2 μM of test compound)	
